Numbered stars: 1 amine (or outer) side, 2 acyl side, 3 side chain; on linkers, the order of the positions; unused ones are H or OH. Bridge positions count the residues as written; N and C are the ends. Square brackets hold non-standard residues; d marks the D form. Ends that are not written are not given here. I, II: the chains in the order shown. * marks the point of attachment. ξ: configuration not given here. Succinimide(1-C2H4CO,3-yl) = O=C1CC([*:1])C(=O)N1CCC(=O)[*:2]; X4 = O=C(O)CC[C@H](NC(=O)CCN1C(=O)CC([*:1])C1=O)C(=O)[*:2]; X2 = O=C(O)CCC(NC(=O)CCN1C(=O)CC([*:2])C1=O)C(=O)[*:1]; Biotin = O=C1N[C@H]2[C@H](CS[C@H]2CCCCC(=O)*)N1; X3 = O=C1CC([*:2])C(=O)N1CCC(=O)[*:1]; X1 = O=C1NC2CSC(CCCCC(=O)*)C2N1; scaffold‑1 = not defined here; Pra = C#CC[C@H](N)C(=O)O; ξE = NC(CCC(=O)O)C(=O)O; AEEA = NCCOCCOCC(=O)O; ξK = NCCCCC(N)C(=O)O; ξS = NC(CO)C(=O)O
How the values were obtained:
[1] = tested on: UV inactivated Influenza A PR8/1934; assay type: binding
[2] = tested on: UV inactivated Influenza A PR/8/1934 H1N1; assay type: binding
[3] = target: T1, NP in A/PR/8/34 H1N1 viral lysate (Influenza A virus, UniProt P03466); assay type: binding
T1 construct: from tissue; host or cells: A/PR/8/34 H1N1 viral lysate

[4] = tested on: hemagglutination of A/PR/8/34
[5] = tested on: NP in A/Sydney/5/1997 H3N2 viral lysate; assay type: binding
[6] = tested on: A/CA/7/2009 H1N1
[7] = tested on: A/Sydney/5/1997 H3N2
[8] = tested on: A/PR/8/34 H1N1 infected Madin-Darby Canine Kidney (MDCK) cells; experiment: Cytopathic effect assay (XTT), virus induced cell death; assay type: cell-based; settings: read-out: IC50, inhibition of virus induced cell death
Excerpt: The illustrated examples support the finding that synbodies inhibit the cytopathic effect of influenza on MDCK cells. Influenza binding peptides were conjugated to a bivalent scaffold (Sc1, as best shown in FIG. 2A) and screened for viral inhibition in an in vitro inhibition assay with A/PR/8/34 H1N1 infected Madin-Darby Canine Kidney (MDCK) cells.

T1 sequence (P03466 whole entry): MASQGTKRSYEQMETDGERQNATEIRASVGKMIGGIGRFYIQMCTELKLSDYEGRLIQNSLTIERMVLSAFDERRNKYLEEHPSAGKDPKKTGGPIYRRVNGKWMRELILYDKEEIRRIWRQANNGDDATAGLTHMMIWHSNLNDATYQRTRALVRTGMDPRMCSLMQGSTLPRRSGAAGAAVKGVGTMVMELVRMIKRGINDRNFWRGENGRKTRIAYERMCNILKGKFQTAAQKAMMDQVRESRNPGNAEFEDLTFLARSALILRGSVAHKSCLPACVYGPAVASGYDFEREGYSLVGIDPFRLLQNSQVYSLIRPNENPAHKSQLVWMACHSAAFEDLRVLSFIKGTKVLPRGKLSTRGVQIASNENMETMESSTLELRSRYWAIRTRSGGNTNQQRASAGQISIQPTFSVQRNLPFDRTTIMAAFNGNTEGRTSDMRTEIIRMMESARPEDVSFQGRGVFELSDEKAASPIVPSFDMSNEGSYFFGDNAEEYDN

In the case of “opt7-opt7: homo-bivalent synbody SEQ ID NO: 8-8 on scaffold-1 (chain 1 CSGRMYPYNPFQGNHIYRKK; chain 2 CSGRMYPYNPFQGNHIYRKK; linker (positions not given here) via scaffold‑1; reading uncertain; also: homo-bivalent on scaffold-1, attachment not given here)”, the “Fold Change versus WT Synbody” value [1] is reported as 45 fold.

For “opt11-opt11: homo-bivalent synbody SEQ ID NO: 12-12 on scaffold-1 (chain 1 CSGTMYPYRPFQGNHIYRKK; chain 2 CSGTMYPYRPFQGNHIYRKK; linker (positions not given here) via scaffold‑1; reading uncertain; also: homo-bivalent on scaffold-1, attachment not given here)”, the “Fold Change versus WT Synbody” value [1] was 47 fold.

With “opt1-opt1: homo-bivalent synbody SEQ ID NO: 2-2 on scaffold-1 (chain 1 CSGDMYRYNPFQGNHIYNKK; chain 2 CSGDMYRYNPFQGNHIYNKK; linker (positions not given here) via scaffold‑1; reading uncertain; also: homo-bivalent on scaffold-1, attachment not given here)” the “Fold Change versus WT Synbody” value [1] was 6 fold.

In the case of “opt5-opt5: homo-bivalent synbody SEQ ID NO: 6-6 on scaffold-1 (chain 1 CSGRMYRYNPFQGNHIYNKK; chain 2 CSGRMYRYNPFQGNHIYNKK; linker (positions not given here) via scaffold‑1; reading uncertain; also: homo-bivalent on scaffold-1, attachment not given here)”, the “Fold Change versus WT Synbody” value [1] is reported as “n.b”.

“opt12-opt12: homo-bivalent synbody SEQ ID NO: 13-13 on scaffold-1 (chain 1 CSGRMYPYRPFQRKHIYRKK; chain 2 CSGRMYPYRPFQRKHIYRKK; linker (positions not given here) via scaffold‑1; reading uncertain; also: homo-bivalent on scaffold-1, attachment not given here)” was tested, and the “Fold Change versus WT Synbody” value [1] was “n.b”.

“opt14-opt14: homo-bivalent synbody SEQ ID NO: 15-15 on scaffold-1 (chain 1 CSGRMYEYNPFQGKHIYRKK; chain 2 CSGRMYEYNPFQGKHIYRKK; linker (positions not given here) via scaffold‑1; reading uncertain; also: homo-bivalent on scaffold-1, attachment not given here)” was tested, and the “Fold Change versus WT Synbody” value [1] was 107 fold.

For “opt3-opt3: homo-bivalent synbody SEQ ID NO: 4-4 on scaffold-1 (chain 1 CSGDMYPYNPFQGNHIYNKK; chain 2 CSGDMYPYNPFQGNHIYNKK; linker (positions not given here) via scaffold‑1; reading uncertain; also: homo-bivalent on scaffold-1, attachment not given here)”, the “Fold Change versus WT Synbody” value [1] was “n.b”.

In the case of “CSGrMYpYrPFQGNHIYrKK (CSG[dR]MYPY[dR]PFQGNHIY[dR]KK; not fully specified (residue 7); printed as CSGrMYpYrPFQGNHIYrKK) [opt10]”, the “fold improvement of optimized peptide over identified lead peptide” value [2] is reported as “approximately 1000 fold”.

With “opt8-opt8: homo-bivalent synbody SEQ ID NO: 9-9 on scaffold-1 (chain 1 CSGTMYEYNPFQGNHIYNKK; chain 2 CSGTMYEYNPFQGNHIYNKK; linker (positions not given here) via scaffold‑1; reading uncertain; also: homo-bivalent on scaffold-1, attachment not given here)” the “Fold Change versus WT Synbody” value [1] was 1 fold.

With “opt13-opt13: homo-bivalent synbody SEQ ID NO: 14-14 on scaffold-1 (chain 1 CCSGDRYEYNPFQGKHIYNK; chain 2 CCSGDRYEYNPFQGKHIYNK; linker (positions not given here) via scaffold‑1; reading uncertain; also: homo-bivalent on scaffold-1, attachment not given here)” the “Fold Change versus WT Synbody” value [1] was “n.b”.

In the case of “opt4-opt4: homo-bivalent synbody SEQ ID NO: 5-5 on scaffold-1 (chain 1 CSGRMYPYNPFQGNHIYNKK; chain 2 CSGRMYPYNPFQGNHIYNKK; linker (positions not given here) via scaffold‑1; reading uncertain; also: homo-bivalent on scaffold-1, attachment not given here)”, the “Fold Change versus WT Synbody” value [1] is reported as 10 fold.

“opt6-opt6: homo-bivalent synbody SEQ ID NO: 7-7 on scaffold-1 (chain 1 CSGDMYEYNPFQGNHIYRKK; chain 2 CSGDMYEYNPFQGNHIYRKK; linker (positions not given here) via scaffold‑1; reading uncertain; also: homo-bivalent on scaffold-1, attachment not given here)” was tested, and the “Fold Change versus WT Synbody” value [1] was 4 fold.

In the case of “opt2-opt2: homo-bivalent synbody SEQ ID NO: 3-3 on scaffold-1 (chain 1 CSGRMYEYNPFQGNHIYNKK; chain 2 CSGRMYEYNPFQGNHIYNKK; linker (positions not given here) via scaffold‑1; reading uncertain; also: homo-bivalent on scaffold-1, attachment not given here)”, the “Fold Change versus WT Synbody” value [1] is reported as 3 fold.

With “I: [ξE][ξK]G[ξS]G[ξS]G[AEEA][ξK](X1)IDKMPFETHRLGPGRFDGSG-NH2 / II: CSGDMYEYNPFQGNHIYNKK-NH2 / III: CSGDMYEYNPFQGNHIYNKK-NH2 (linker I:2-II:1 via X2; linker I:N-III:1 via X3) [P5-P5-Sc2]” the “pull-down of NP from lysate” value [3] was “pulled-down NP from both lysates”, the inhibition of hemagglutination [4] was “did not inhibit hemagglutination” and the “pull-down of NP from lysate” value [5] was “pulled-down NP from both lysates”. For the same substance, the IC50 [6] was 2.5 µM and the IC50 [7] was 2.5 µM.

With “I: CSGDMYEYNPFQGNHIYNKK-NH2 / II: CSGDMYEYNPFQGNHIYNKK-NH2 / III: EKGSKSGK(Biotin)[Pra]-NH2 (linker I:1-III:2 via X4; linker II:1-III:N via Succinimide(1-C2H4CO,3-yl); C-terminus assumed) [P5-P5-Sc1]” the IC50 [8] was ~2.5 µM and the “Fold Change versus WT Synbody” value [1] was 1 fold.

With “opt9-opt9: homo-bivalent synbody SEQ ID NO: 10-10 on scaffold-1 (chain 1 CSGRMYPYRPFQGNHIYRKK; chain 2 CSGRMYPYRPFQGNHIYRKK; linker (positions not given here) via scaffold‑1; reading uncertain; also: homo-bivalent on scaffold-1, attachment not given here)” the “Fold Change versus WT Synbody” value [1] was 1 fold.

— patent publication US10011649B2 (priority 2013, dated 2018)
